Test results published in patent publication US5180742A, “Quinone derivatives, their production and use” (Takeda Chemical Industries, Ltd., priority 1984, dated 1993).

Tests used:
5-Lipoxygenase = biological target: T1, 5-Lipoxygenase (Rattus norvegicus, UniProt P12527); test: 5-Lipoxygenase inhibitory activity: 5-HETE production in RBL-1 cells (HPLC); format: cell-based, rat (RBL-1, rat basophilic leukemia cells); conditions: arachidonic acid + A 23187, 37° C., 20 minutes, read-out: 5-HETE production inhibiting effect (IC50)
T1 construct: endogenous in cells; host or cells: RBL-1 (rat basophilic leukemia cells)
T1 sequence (P12527 1-673): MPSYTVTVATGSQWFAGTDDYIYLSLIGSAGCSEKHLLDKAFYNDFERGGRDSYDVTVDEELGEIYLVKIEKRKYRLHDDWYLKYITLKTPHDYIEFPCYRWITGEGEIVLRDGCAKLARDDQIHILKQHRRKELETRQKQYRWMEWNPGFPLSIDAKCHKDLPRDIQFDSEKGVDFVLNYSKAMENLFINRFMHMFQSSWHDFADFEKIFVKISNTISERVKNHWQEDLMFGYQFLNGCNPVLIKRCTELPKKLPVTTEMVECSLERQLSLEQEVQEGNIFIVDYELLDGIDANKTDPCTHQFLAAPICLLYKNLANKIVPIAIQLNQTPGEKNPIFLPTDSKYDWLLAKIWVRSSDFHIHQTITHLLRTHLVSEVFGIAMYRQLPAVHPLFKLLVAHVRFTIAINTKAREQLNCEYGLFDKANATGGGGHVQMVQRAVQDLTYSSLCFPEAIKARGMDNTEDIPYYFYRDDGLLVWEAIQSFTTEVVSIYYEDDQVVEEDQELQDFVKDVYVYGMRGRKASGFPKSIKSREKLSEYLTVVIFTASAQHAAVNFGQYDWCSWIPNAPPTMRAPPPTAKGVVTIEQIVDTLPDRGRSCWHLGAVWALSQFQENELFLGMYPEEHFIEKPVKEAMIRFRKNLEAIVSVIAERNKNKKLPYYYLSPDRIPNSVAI
Method: 5-Lipoxygenase Inhibitory Activity
10^7 RBL-1 cells (rat basophilic leukemia cells) were suspended in 0.5 ml of MCM (mast cell medium), and test solutions (made up of 0.5 ml of MCM, 50 μg of arachidonic acid, 10 μg of A 23187 (calcium ionophore, Eli Lilly) and 1 μM, 0.1 μM, 0.01 μM and0.001 μM as the final concentration of the quinone compound, respectively) prepared previously were added respectively to the suspension, followed by reaction at 37° C. for 20 minutes. After the conclusion of the reaction, 4 ml of ethanol and 1,4-dimethoxy-2-methyl-3-(3-methoxypropyl)naphthalene as the internal reference drug were added to the reaction solution, and the mixture was shaken thoroughly and allowed to stand at room temperature for 10 minutes. Then, it was centrifuged (2000 r.p.m.) for 10 minutes, and the supernatant fluid was separated and concentrated to dryness under reduced pressure. 0.5 Milliliter of 60% aqueous methanol was added to the concentrate, and 100 μl of the resulting solution was taken and subjected to high-performance liquid chromatography to determine amount of 5-HETE (5-hydroxyeicosatetraenoic acid). Determination of 5-HETE was made through measurement of an absorption at 237 nm with a UV absorption monitor.
The 5-HETE production inhibitory effect (IE) was expressed by [formula] wherein a is a peak height or peak area corrected by the peak for the internal reference when the quinone compound is not contained; b is a peak height or peak area corrected by the peak for the internal reference when the quinone compound is contained.

[1] = system: PAF-induced bronchoconstriction; test: Effect on PAF-induced bronchoconstriction in guinea pigs; format: in vivo; conditions: one hour before PAF
Method: Platelet Activating Factor (PAF)-Induced Bronchoconstriction in Guinea Pigs
Experimental procedure in this experiment was the same as that in LTD4 -induced bronchoconstriction shown in Experimental example 7. PAF is an intraveneous dose of 1 μg/kg was used. Each specimen suspended in a 5% gum arabic solution was given orally one hour before the PAF administration.

[2] = system: O2^- production in guinea pigs peritoneal macrophages; test: Inhibitory effect on O2- production in guinea pig peritoneal macrophages (chemiluminescence); format: cell-based, guinea pig (Hartley); conditions: Cavia porcellus, Peritoneal macrophage, 3 experiments; for inhibition at 100 µM: 10^-4 M; for inhibition at 10 µM: 10^-5 M; for inhibition at 1 µM: 10^-6 M
Method: Superoxide (O2^-) Production in Guinea Pig Peritoneal Macrophages
Male Hartley guinea pigs weighing 400-450 g were given intraperitoneally 5 ml of liquid paraffin. Four days later, 15 ml of Hank's buffer were administered into the peritoneal cavity for harvest of peritoneal cells. Macrophages in the peritoneal cells were purified by the method of Wood, P. R. [J. Immunol. Methods, 28, 117-124 (1979)].
The purity of macrophages was more than 95%. The reaction mixture contained 75 μl of macrophages (1×10^7 cells/ml), 5 μl of luminol, 10 μl of phorbol myristate acetate and 10 μl of drugs in a total volume of 100 μl. O2^- Product was assayed by chemiluminescence. Drugs were dissolved in a 10% dimethyl sulfoxide.

[3] = system: SRS-A generation in rats pleural exudate; test: Effects on SRS-A generation in pleural exudate in rat reversed passive Arthus pleurisy; format: in vivo
Method: (§1) Effects on Increased Vascular Permeability and Slow Reacting Substance of Anaphylaxis (SRS-A) Generation in Rat Reversed Passive Arthus Pleurisy
(§2) The rat reversed passive Arthus pleurisy was induced by the method of Yamamoto et al. Agents Actions, 5, 374-377 (1975)]. Rats were given 1 ml of saline containing 5 mg of egg albumin intravenously followed 0.2 ml of rabbit anti-agg albumin antiserum injected into the pleural cavity. Just after that, 0.5 ml of saline contained 1% Evans blue was administered intravenously to the rats. 30 Minutes later, the animals were killed by bleeding, and the pleural cavity was rinsed with 2 ml of saline. The concentrations of the dye in the pleural exudate and the peripheral blood were measured to calculate the volume of serum infiltrated into the pleural cavity. The vascular permeability (dye concentration in pleural cavity/dye concentration in peripheral blood) was expressed as μl serum/30 min. On the other hand, the amount of SRS-A generated in the pleural cavity was determined by the following procedures. 30 Minutes after induction of the pleurisy, the aminals were killed by bleeding and the pleural cavity was rinsed with 2 ml of saline. 9 Milliliter of cold absolute ethanol were immediately added to the rinsed solution. The mixture was allowed to stand at 4° C. for 30 min. After the mixture was centrifuged at 3000 r.p.m. for 10 min, the supernatant was concentrated by evaporation. The resulting residue was dissolved in 0.5 ml of saline. The amount of SRS-A generated was bioassayed using guinea pig ileum.

[4] = system: vascular permeability during early response of rat reversed passive Arthus pleurisy; test: Effects on vascular permeability in rat reversed passive Arthus pleurisy; format: in vivo
Method: as §1, §2

Structure (SMILES) | IC50 (5-Lipoxygenase) [nM] | % Inhibition of PAF-induced bronchoconstriction ([1]; 0.313 mg/kg oral) [%] | % Inhibition of PAF-induced bronchoconstriction ([1]; 1.25 mg/kg oral) [%] | % Inhibition of PAF-induced bronchoconstriction ([1]; 5 mg/kg oral) [%] | inhibition at 100 µM [2] [%] | inhibition at 10 µM [2] [%] | inhibition at 1 µM [2] [%] | % Inhibition of SRS-A generation in pleural exudate ([3]; 0.1 mg/rat) [%] | % Inhibition of SRS-A generation in pleural exudate ([3]; 1 mg/rat) [%] | % Inhibition of vascular permeability ([4]; 0.1 mg/rat) [%] | % Inhibition of vascular permeability ([4]; 1 mg/rat) [%] | % Inhibition of PAF-induced bronchoconstriction ([1]; 0.08 mg/kg oral) [%]
CC1=C(C)C(=O)C(C(CCCCCC(=O)O)c2ccccc2)=C(C)C1=O (stereo not shown) [Compound No. 50, 7-(3,5,6-trimethyl-1,4-benzoquinon-2-yl)-7-phenylheptanoic acid] | 28 | 66 | 94 | 85 | 88 ± 2 | 38 ± 3 | 16 ± 6 | 49 | 77 | 21 | 47 | –
CC1=C(C)C(=O)C(C(CCCCCC(=O)O)c2ccc(C)cc2)=C(C)C1=O (stereo not shown) [Compound No. 93] | 90 | 87 | 70 | – | 91 ± 3 | 33 ± 12 | 9 ± 6 | -6 | 56 | 14 | 43 | 58
